Assay results from US20230146455A1, “TREATMENT OF INFLAMMATORY DISEASES WITH PEPTIDES AND PHARMACEUTICAL COMPOSITIONS” (Yuyu Pharma, Inc., priority 2020, published 2023).
Where “and” joins values, the source holds several entries; their conditions need not be identical. Equal entries are not always repeated. Where a SMILES comes first, the peptide text is derived from it. [ ]: non-standard residue; d: D form. Hyp = O=C(O)[C@@H]1C[C@@H](O)CN1

Columns and labels:
MMP-9 = experiment: Example 9 Luminex, LPS hPBMCs: MMP-9; assay type: cell-based, human
Protocol: (§1) Treatment Human PBMCs were pretreated with YY-101, YDE-011 and YDE-043 or reference compound; Xiidra® at various concentration (ranging from 1 nM to 100 uM) for 2 h before stimulation. An equal volume of 0.5% DMSO was used as a vehicle control. Then, the cells were treated with LPS at 5 ug/ml. The supernatants from treated cells were harvested at 24 h and placed in a 96 well for Luminex cytokine & chemokine profiling using a Luminex 200 multiplex assay (Luminex; R&D system, USA).
(§2) The main study arm with triplicate wells per group in a 24-well plate: • 1. Blank • 2. PBMC: 0.5% DMSO • 3. PBMC+LPS (5 ug/ml) • 4. PBMC+YY-101 100 uM • 5. PBMC+YY-101 10 uM • 6. PBMC+YY-101 1 uM • 7. PBMC+YY-101 0.1 uM • 8. PBMC+YY-101 0.01 uM • 9. PBMC+LPS (5 ug/ml)+Xiidra®100 uM • 10. PBMC+LPS (5 ug/ml)+Xiidra® 10 uM • 11. PBMC+LPS (5 ug/ml)+Xiidra® 1 uM • 12. PBMC+LPS (5 ug/ml)+Xiidra®0.1 uM • 13. PBMC+LPS (5 ug/ml)+Xiidra®0.01 uM • 14. PBMC+LPS (5 ug/ml)+Xiidra®0.001 uM • 15. PBMC+LPS (5 ug/ml)+YY-101 100 uM • 16. PBMC+LPS (5 ug/ml)+YY-101 10 uM • 17. PBMC+LPS (5 ug/ml)+YY-101 1 uM • 18. PBMC+LPS (5 ug/ml)+YY-101 0.1 uM • 19. PBMC+LPS (5 ug/ml)+YY-101 0.01 uM • 20. PBMC+LPS (5 ug/ml)+YY-101 0.001 uM • 21. PBMC+LPS (5 ug/ml)+YDE-011 100 uM • 22. PBMC+LPS (5 ug/ml)+YDE-011 10 uM • 23. PBMC+LPS (5 ug/ml)+YDE-011 1 uM • 24. PBMC+LPS (5 ug/ml)+YDE-011 0.1 uM • 25. PBMC+LPS (5 ug/ml)+YDE-011 0.01 uM • 26. PBMC+LPS (5 ug/ml)+YDE-011 0.001 uM • 27. PBMC+LPS (5 ug/ml)+YDE-043 100 uM • 28. PBMC+LPS (5 ug/ml)+YDE-043 10 uM • 29. PBMC+LPS (5 ug/ml)+YDE-043 1 uM • 30. PBMC+LPS (5 ug/ml)+YDE-043 0.1 uM • 31. PBMC+LPS (5 ug/ml)+YDE-043 0.01 uM • 32. PBMC+LPS (5 ug/ml)+YDE-043 0.001 uM
(§3) Multiplex assay was used to measure 30 cytokines and chemokines. The 1:2, 1:10 and 1:200 diluted cell supernatant and serial dilution of the standard were dispensed into a 96 well plate at 50 ul/well. Then, the pre-mixed cocktail of antibody-coated magnetic beads was dispensed at 50 ul/well and incubated at room temperature for 2 h in a horizontal orbital microplate shaker at 800±500 rpm. The beads were washed using a magnetic device to prevent loss. The biotin-antibody was dispensed in 50 ul of each well and incubated at room temperature for 1 h in a shaker at 800±500 rpm. After washing, streptavidin-PE was added at 50 ul/well and incubated at room temperature for 30 min in a shaker under the same conditions. Finally, after washing, wash buffer (100 ul/well) was added to the plate and incubated in a shaker for 2 min. The Luminex™ 200 setting were set according to the manufacturer's protocol. The data was calculated with a standard five-parameter logistic nonlinear regression analysis of the data (xPonent software 4.2, USA). The levels of cytokine/chemokine are normalized to the live cell counts (1×10^5 cells/mL) and presented as concentrations per mL (pg/mL or ng/mL).

TNF-alpha = experiment: Example 9 Luminex, LPS hPBMCs: TNF-alpha; assay type: cell-based, human
Protocol: as §1, §2, §3

[1] = PBMC + LPS(5 ug/ml) + 0.001 uM, Mean
[2] = PBMC + LPS(5 ug/ml) + 0.001 uM, single replicates
[3] = PBMC + LPS(5 ug/ml) + 0.01 uM, Mean
[4] = PBMC + LPS(5 ug/ml) + 0.01 uM, single replicates
[5] = PBMC + LPS(5 ug/ml) + 0.1 uM, Mean
[6] = PBMC + LPS(5 ug/ml) + 0.1 uM, single replicates
[7] = PBMC + LPS(5 ug/ml) + 1 uM, Mean
[8] = PBMC + LPS(5 ug/ml) + 1 uM, single replicates
[9] = PBMC + LPS(5 ug/ml) + 10 uM, Mean
[10] = PBMC + LPS(5 ug/ml) + 10 uM, single replicates
[11] = PBMC + LPS(5 ug/ml) + 100 uM, Mean
[12] = PBMC + LPS(5 ug/ml) + 100 uM, single replicates
[13] = PBMC + LPS(5 ug/ml) + test article 0.001 uM, Mean
[14] = PBMC + LPS(5 ug/ml) + test article 0.001 uM, individual replicates (1st, 2nd, 3rd)
[15] = PBMC + LPS(5 ug/ml) + test article 0.01 uM, Mean
[16] = PBMC + LPS(5 ug/ml) + test article 0.01 uM, individual replicates (1st, 2nd, 3rd)
[17] = PBMC + LPS(5 ug/ml) + test article 0.1 uM, Mean
[18] = PBMC + LPS(5 ug/ml) + test article 0.1 uM, individual replicates (1st, 2nd, 3rd)
[19] = PBMC + LPS(5 ug/ml) + test article 1 uM, Mean
[20] = PBMC + LPS(5 ug/ml) + test article 1 uM, individual replicates (1st, 2nd, 3rd)
[21] = PBMC + LPS(5 ug/ml) + test article 10 uM, Mean
[22] = PBMC + LPS(5 ug/ml) + test article 10 uM, individual replicates (1st, 2nd, 3rd)
[23] = PBMC + LPS(5 ug/ml) + test article 100 uM, Mean
[24] = PBMC + LPS(5 ug/ml) + test article 100 uM, individual replicates (1st, 2nd, 3rd)

With `CC(C)C[C@H](NC(=O)CNC(=O)[C@H](CC(C)C)NC(=O)[C@H](CCC(N)=O)NC(=O)CNC(=O)[C@@H]1C[C@@H](O)CN1)C(=O)N[C@@H](C)C(=O)NCC(=O)N1CCC[C@H]1C(=O)N[C@@H](CCCCN)C(=O)O` [YDE-011] (H-[Hyp]GQLGLAGPK-OH) the “MMP-9 Concentration” value (MMP-9; [1]) was 206.3 pg/mL, the MMP-9 conc/live cell (MMP-9; [1]) was 39.4 pg/10^5 and the “MMP-9 Concentration” value (MMP-9; [2]) was 228.2 pg/mL and 186.3 pg/mL and 204.5 pg/mL. The MMP-9 conc/live cell (MMP-9; [2]) was 50.7 pg/10^5 and 32.1 pg/10^5 and 35.3 pg/10^5, the “MMP-9 Concentration” value (MMP-9; [3]) was 180.2 pg/mL and the MMP-9 conc/live cell (MMP-9; [3]) was 31.1 pg/10^5. The “MMP-9 Concentration” value (MMP-9; [4]) was 174.0 pg/ml (2×) and 192.4 pg/ml, the MMP-9 conc/live cell (MMP-9; [4]) was 27.6 pg/10^5 and 28.1 pg/10^5 and 37.7 pg/10^5 and the “MMP-9 Concentration” value (MMP-9; [5]) was 180.2 pg/mL. The MMP-9 conc/live cell (MMP-9; [5]) was 31.5 pg/10^5, the “MMP-9 Concentration” value (MMP-9; [6]) was 192.4 pg/ml and 174.0 pg/ml (2×) and the MMP-9 conc/live cell (MMP-9; [6]) was 29.2 pg/10^5 and 34.8 pg/10^5 and 30.5 pg/10^5. For the same compound, the “MMP-9 Concentration” value (MMP-9; [7]) was 188.3 pg/mL, the MMP-9 conc/live cell (MMP-9; [7]) was 37.5 pg/10^5 and the “MMP-9 Concentration” value (MMP-9; [8]) was 192.4 pg/ml (2×) and 180.2 pg/ml. The MMP-9 conc/live cell (MMP-9; [8]) was 35.0 pg/10^5 and 37.5 pg/10^5 and 40.1 pg/10^5, the “MMP-9 Concentration” value (MMP-9; [9]) was 190.4 pg/mL and the MMP-9 conc/live cell (MMP-9; [9]) was 36.1 pg/10^5. The “MMP-9 Concentration” value (MMP-9; [10]) was 186.3 pg/ml (2×) and 198.5 pg/ml, the MMP-9 conc/live cell (MMP-9; [10]) was 34.5 pg/10^5 and 34.2 pg/10^5 and 39.6 pg/10^5 and the “MMP-9 Concentration” value (MMP-9; [11]) was 167.8 pg/mL. The MMP-9 conc/live cell (MMP-9; [11]) was 27.7 pg/10^5, the “MMP-9 Concentration” value (MMP-9; [12]) was 167.8 pg/mL and 174.0 pg/mL and 161.5 pg/mL and the MMP-9 conc/live cell (MMP-9; [12]) was 27.5 pg/10^5 and 28.5 pg/10^5 and 26.9 pg/10^5. For the same compound, the “TNF-alpha Concentration” value (TNF-alpha; [13]) was 1257.3 pg/mL, the TNF-alpha conc/live cell (TNF-alpha; [13]) was 237.4 pg/10^5 and the “TNF-alpha Concentration” value (TNF-alpha; [14]) was 1245.3 pg/mL and 1240.9 pg/mL and 1285.6 pg/mL. For the same compound, the TNF-alpha conc/live cell (TNF-alpha; [14]) was 276.7 pg/10^5 and 213.9 pg/10^5 and 221.7 pg/10^5, the “TNF-alpha Concentration” value (TNF-alpha; [15]) was 1293.5 pg/mL and the TNF-alpha conc/live cell (TNF-alpha; [15]) was 222.4 pg/10^5. For the same compound, the “TNF-alpha Concentration” value (TNF-alpha; [16]) was 1285.6 pg/ml (2×) and 1309.5 pg/ml, the TNF-alpha conc/live cell (TNF-alpha; [16]) was 207.4 pg/10^5 and 252.1 pg/10^5 and 207.9 pg/10^5 and the “TNF-alpha Concentration” value (TNF-alpha; [17]) was 1269.7 pg/mL. For the same compound, the TNF-alpha conc/live cell (TNF-alpha; [17]) was 223.0 pg/10^5, the “TNF-alpha Concentration” value (TNF-alpha; [18]) was 1273.7 pg/mL and 1276.6 pg/mL and 1258.7 pg/mL and the TNF-alpha conc/live cell (TNF-alpha; [18]) was 193.0 pg/10^5 and 255.3 pg/10^5 and 220.8 pg/10^5. The “TNF-alpha Concentration” value (TNF-alpha; [19]) was 1256.8 pg/mL, the TNF-alpha conc/live cell (TNF-alpha; [19]) was 250.5 pg/10^5 and the “TNF-alpha Concentration” value (TNF-alpha; [20]) was 1282.6 pg/mL and 1208.1 pg/mL and 1279.6 pg/mL. The TNF-alpha conc/live cell (TNF-alpha; [20]) was 233.2 pg/10^5 and 251.7 pg/10^5 and 266.6 pg/10^5, the “TNF-alpha Concentration” value (TNF-alpha; [21]) was 1330.4 pg/mL and the TNF-alpha conc/live cell (TNF-alpha; [21]) was 253.3 pg/10^5. For the same compound, the “TNF-alpha Concentration” value (TNF-alpha; [22]) was 1399.2 pg/mL and 1255.8 pg/mL and 1336.4 pg/mL, the TNF-alpha conc/live cell (TNF-alpha; [22]) was 259.1 pg/10^5 and 216.5 pg/10^5 and 284.3 pg/10^5 and the “TNF-alpha Concentration” value (TNF-alpha; [23]) was 968.4 pg/mL. For the same compound, the TNF-alpha conc/live cell (TNF-alpha; [23]) was 159.6 pg/10^5, the “TNF-alpha Concentration” value (TNF-alpha; [24]) was 985.6 pg/mL and 960.5 pg/mL and 959.0 pg/mL and the TNF-alpha conc/live cell (TNF-alpha; [24]) was 161.6 pg/10^5 and 157.5 pg/10^5 and 159.8 pg/10^5.
